Reference: patent US4861771A, “Carbamates of 6-chloro-7,8-dihydroxy-1-(4'-hydroxyphenyl)-2,3,4,5-tetrahydro-1H-3-benz azepine as prodrugs” (priority 1989, dated 1989)
Structures can show the parent of a compound that is named as a salt. Values belong to the compound of their own block, whether it stands above or below them.

Key:
[1] = plasma fenoldopam levels in dogs; format: in vivo, female mongrel dogs
Description: (§1) The renal blood flow of the compounds of Formula 1 was readily measured in female mongrel dogs which underwent chronic implantation of a renal flow probe and arterial Vascular-Acess-Port. Briefly, the dogs were anesthetizied and using standard asceptic techniques, a Transonic flow probe was placed around the left renal artery and the connector tunneled subcutaneously to the back of the dog. The Vascular-Access-Port was placed in the left femoral artery and the access portion tacked to the underlying muscle in the area of the paralumbar-fossa. The patency of the Vascular Access Port was maintained by weekly flushing of the catheter and locking with a 50% glucose 500 U/ml heparinized solution. Dogs were trained to lie quietly restrained on a board and the connector portion of the flow probe was exteriorized under local anesthesia and connected to a Transonic flowmeter. Renal blood flow was recorded continuously on a Gilson chart recorder. Mean arterial pressure was monitored directly from the Vascular-Access-Port using a 23 gauge butterfly. Mean arterial blood pressure and renal blood flow were recorded before and for 6 hr. after the oral or i.v. administration of the R-enantiomers of the parent compound (fenoldopam) and the prodrug of fenoldopam. At the end of the experiment, the flow probe connector was returned to its subcutaneous position and the skin incision closed with chromic gut and skin staples. The VAP was again flushed and a fresh heparin glucose lock established. Standard sterile procedures followed during the removal and replacement of the flow probe connector.
During the experiment post drug blood samples were withdrawn periodically in order to determine the plasma levels of the parent drug, i.e., fenoldopam plasma levels.

renal blood flow = renal blood flow in chronically instrumented (flow probe) dogs; format: in vivo, female mongrel dogs; settings: oral
Description: as §1
The effect was transient and renal blood flow had returned to control values within 60 minutes.

[2] = cited from earlier work

SMILES: CCNC(=O)Oc1ccc([C@H]2CNCCc3c2cc(OC(=O)NCC)c(OC(=O)NCC)c3Cl)cc1 [Example 3, (R)-6-chloro-7,8-diethylcarbamoyl-(4'-ethylcarbamoylphenyl)-2,3,4,5-tetrahydro-1H-3-benzazepine hydrochloride]
duration of sustained increase in plasma fenoldopam ([1]; oral, dogs): 4 to 6 h | duration of sustained increase in renal blood flow (renal blood flow; dogs): 4 to 6 h

Tmax ([1]; dog, plasma, oral, 4 dogs, read-out: time of peak plasma fenoldopam level (converted)): 5 min
SMILES: Oc1ccc([C@H]2CNCCc3c2cc(O)c(O)c3Cl)cc1 [R-6-chloro-7,8-dihydroxy-1-(4'-hydroxyphenyl)-2,3,4,5-tetrahydro-1H-3-benzazepine]
renal blood flow effect in words (renal blood flow; 4 dogs): transient | time for renal blood flow to return to control values (renal blood flow; 4 dogs): ≤ 60 min | increase in renal blood flow (renal blood flow; 4 dogs, significant increase): 80%

half-life ([1]; dog, plasma, after oral administration of fenoldopam, dogs): 12 min
SMILES: Oc1ccc(C2CNCCc3c2cc(O)c(O)c3Cl)cc1 (centres unmarked) [fenoldopam, 6-chloro-7,8-dihydroxy-1-(4-hydroxyphenyl) 2,3,4,5-tetrahdyro-1H-3-benzazepine]
initial peak plasma level ([2]; in vivo, po): initial high peak plasma level | bioavailability ([2]; oral): low | first pass metabolism ([2]; oral): high | half life ([2]; reportedly): short
